Values after ≈ are worked out from the molar mass of the structure shown. Like-named read-outs stand apart in the source and are kept apart here.
Columns and labels:
[1] = system: Multi-drug-resistant S. pneumoniae ATCC 700677; assay: microbe, parasite or virus in culture; conditions: Streptococcus pneumoniae, ATCC700677, read-out: MIC MDR S.P.
Summary of the method: (§1)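 Growth inhibition measured by broth microdilution (MHB, 37 °C, 24 h incubation). MIC defined visually as the lowest inhibitory concentration.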

[2] = system: Vancomycin-intermediate S. aureus NRS1; assay: microbe, parasite or virus in culture; conditions: Staphylococcus aureus, NRS1 / VISA, read-out: MIC VISA
Summary of the method: as §1

[3] = system: Vancomycin-resistant (VanA) Enterococcus faecium ATCC 51559; assay: microbe, parasite or virus in culture; conditions: Enterococcus faecium, ATCC51559 / VRE, read-out: MIC VRE
Summary of the method: as §1

[4] = system: S. aureus ATCC 43300 MRSA; assay: microbe, parasite or virus in culture; type: cell-based, Staphylococcus aureus; conditions: Staphylococcus aureus, 24 h
Summary of the method: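 Twofold broth microdilution in Mueller Hinton broth used compounds from 8 to 0.003 µg mL^−1. Mid-log cultures were added at 5 × 10^5 CFU mL^−1 and incubated for 24 h at 37 °C. MIC was the lowest concentration with no visible growth.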

S. pneumoniae ATCC 33400 = assay: microbe, parasite or virus in culture; type: cell-based, Streptococcus pneumoniae; conditions: Streptococcus pneumoniae, ATCC33400, 24 h
Description: (§2) The compounds, along with standard antibiotics were serially diluted twofold across the wells of 96-well non-binding surface (NBS) polystyrene plates (Corning 3641). […] Standards ranged from 64 to 0.03 µg mL^−1 and compounds from 8 to 0.003 µg mL^−1 with final assay volumes of 100 µL per well. Gram-positive bacteria were cultured in Mueller Hinton broth (MHB) (Bactolaboratories, Cat. no. 211443) at 37 °C overnight. A sample of each culture was then diluted 40-fold in fresh MHB and incubated at 37 °C for 2–3 h. The resultant mid-log phase cultures were added to the compound-containing 96-well plates to give a final cell density of 5 × 10^5 colony forming unit (CFU) mL^−1. All the plates were covered and incubated at 37 °C for 24 h. MICs were the lowest concentration showing no visible growth.

[5] = system: S. pneumoniae ATCC 700677 MDR; assay: microbe, parasite or virus in culture; type: cell-based, Streptococcus pneumoniae; conditions: Streptococcus pneumoniae, ATCC700677, 24 h
Description: as §2

[6] = In vivo pharmacokinetics in mice; conditions: mouse; for concentration at […]: 0.250 h; for concentration at 0.5 h: 0.500 h; for MRT inf: read-out: MRT0-inf; for MRT last: read-out: MRT0-last
Description: Performed by WuXi AppTec (Shanghai) Co., Ltd. Seven to 9-week-old male CD1 mice (SLAC Laboratory Animal Co. Ltd., Shanghai, China) weighing 25–35 g were acclimated for approximate 3 days before being used in the study. Animals are group housed during acclimation and in-life study in compliance with the National Research Council 'Guide for the Care and Use of Laboratory Animals.' The animal room environment is controlled (target conditions: temperature 18 to 26 °C, relative humidity 30–70%, 12 h artificial light and 12 h dark) with temperature and relative humidity monitored daily. Animals were deprived of food for approximately 16 h before formulation administration then allowed access to Certified Rodent Diet (Catalogue # M-01F, Shanghai SLAC Laboratory Animal Co. Ltd.) ad libitum 4 h post dosing. Water was autoclaved before being provided to the animals ad libitum. Formulations of compounds were prepared on the morning of the dosing day. The formulation for the IV group was filtered with filter of 0.22 μm before being dosed to animals. After dose formulation preparation, duplicate 50 μL aliquots were removed from each dose formulation for use in dose validation. For each compound studied, three mice were dosed intravenously (IV) administered to each animal via tail vein per facility SOPs using test article formulated in deionised water at 1 mg mL^−1 with a dose volume of 2 mg mL^−1, providing a dose of 2 mg mL^−1 (based on free base concentration). An additional three mice were dosed subcutaneously (SC) administered to each animal via subcutaneous bolus on each animals’ back per facility SOPs using test article formulated in deionised water at 2 mg mL^−1 with a dose volume of 5 mg mL^−1, providing a dose of 10 mg mL^−1. All animals were killed at the last study time point (100% CO2 was introduced into the animal box).
Plasma samples were collected as the following target times after each dose administration: IV Sampling Time points (hours post dosing): 0, 0.083, 0.25, 0.5, 1, 2, 4, 8 and 24. SC Sampling Time points (hours post dosing): 0, 0.25, 0.5, 1, 2, 4, 8 and 24. Approximately 30 μL blood was obtained via submandibular or saphenous vein for the first several time points. For the last time point, samples were collected via cardiac puncture while the mouse was under anaesthesia. All blood samples were transferred into pre-chilled plastic microcentrifuge tubes containing 2 μL of ethylenediaminetetraacetic acid dipotassium salt (K2-EDTA) (0.5 M) as anticoagulant and placed on wet ice until centrifugation. Harvested blood samples were centrifuged within 30 min of collection at 7000 rpm (8546 × g) 4 °C for about 10 min. After centrifugation, plasma was transferred into another pre-labelled and pre-chilled polypropylene microcentrifuge tubes, then quick-frozen over dry ice and stored at −70 ± 10 °C until LC/MSMS analysis.
LC-MS/MS methods for the quantitative determination of the test article in mouse plasma were developed with an internal standard. Benchtop stability of the compound in mouse plasma was determined at mid QC concentrations in triplicate at 0, 2 h at room temperature. The stability was determined using mean peak area ratio of T2/T0 sample. If the mean peak area ratio is within 80%~120%, the test article in the plasma is considered stable for 2 h at room temperature. […] A set of QC samples consists of three concentration levels (low, middle and high). The sample analysis was performed concurrently with a set of calibration standards and two sets of QC samples using the LC-MS/MS method.
Plasma concentration vs. time data from individual animals was analysed by WinNonLin non-compartmental model (Phoenix WinNonlin 6.2.1, Pharsight, Mountain View, CA). Pharmacokinetic parameter C 0, T ½, CL, Vdss, C max, T max, AUC0-last, AUC0-inf, %F, MRT0-last, MRT0-inf and graphs of plasma concentration vs. time profile were derived.

S. aureus ATCC 43300 = assay: Membrane depolarisation assay (diSC3(5)); type: cell-based, Staphylococcus aureus; conditions: 16 µg mL^−1, 30 min, MRSA ATCC 43300
Description: Antibiotic-induced bacterial cytoplasmic membrane depolarisation was determined using the fluorescent dye 3,3-dipropylthiacarbocyanine diSC3(5) (Sigma Aldrich, Australia) as previously described. Briefly, early exponential phase cells were pelleted and washed twice in 10 mM HEPES buffer (pH 7.4) containing 50 µg mL^−1 of CaCl2 and 5 mM Glucose, and then re-suspended in the same buffer (2 × 10^8 CFU mL^−1). diSC3(5) was added to a final concentration of 1.5 µM and incubated at room temperature in the dark to enable dye uptake and fluorescence quenching. After 30 min, cells were diluted 50-fold in assay buffer and 45 µL of cells were added to a 384-well black walled polystyrene plate (Corning, CLS3573) (Note: NBS plates were not employed, and no polysorbate-80 was added to avoid potential effects on membrane permeability, or interference with fluorescence as previously reported. The MICs of compounds in polystyrene plates are listed in Supplementary Table 12). Background data was collected before adding compounds using a Tecan Infinite® m1000 Pro Multi-mode reader (excitation/emission 612/665 nm) to ensure fluorescence quenching. Compounds were added to a final concentration of 16 µg mL^−1 and fluorescence was monitored for 30 min. Data were corrected by subtraction of background response (diSC3(5) in the presence of untreated cells, no compound). […] Each sample was tested in quadruplicate and independent assays were performed twice showing similar results. Data were analysed and presented using Prism software.

[7] = 37 °C, 20 µM
[8] = male, CD1, plasma, 2 mg/kg IV, read-out: Plasma concentration, Mean IV
[9] = male, CD1, plasma, 10 mg/kg SC, read-out: Plasma concentration, Mean SC
[10] = male, CD1, plasma, IV 2 mg kg-1
[11] = male, CD1, plasma, SC 10 mg kg-1

Compound: CN[C@H](CC(C)C)C(=O)N[C@H]1C(=O)N[C@@H](CC(N)=O)C(=O)N[C@H]2C(=O)N[C@H]3C(=O)N[C@H](C(=O)N[C@H](C(=O)O)c4cc(O)cc(O)c4-c4cc3ccc4O)[C@H](O)c3ccc(c(Cl)c3)Oc3cc2cc(c3O[C@@H]2O[C@H](CO)[C@@H](O)[C@H](O)[C@H]2O[C@H]2C[C@](C)(N)[C@H](O)[C@H](C)O2)Oc2ccc(cc2Cl)[C@H]1O [Compound 1, Vancomycin]
- MIC [1]: 1 µg/mL (≈ 0.69 µM)
- MIC [2]: 4 µg/mL (≈ 2.76 µM)
- MIC [3]: > 64 µg/mL
- MIC ([4]; read-out: MIC S. aureus ATCC 43300 MRSA, 1% Survanta): 0.5 µg/mL (≈ 0.345 µM)
- MIC ([4]; read-out: MIC S. aureus ATCC 43300 MRSA, 5% Survanta): 0.5 µg/mL (≈ 0.345 µM)
- MIC ([4]; read-out: MIC S. aureus ATCC 43300 MRSA, no added Survanta): 0.5 µg/mL (≈ 0.345 µM)
- MIC (S. pneumoniae ATCC 33400; read-out: MIC S. pneumoniae ATCC 33400, 1% Survanta): 0.5 µg/mL (≈ 0.345 µM)
- MIC (S. pneumoniae ATCC 33400; read-out: MIC S. pneumoniae ATCC 33400, 5% Survanta): 0.5 µg/mL (≈ 0.345 µM)
- MIC (S. pneumoniae ATCC 33400; read-out: MIC S. pneumoniae ATCC 33400, no added Survanta): 0.5 µg/mL (≈ 0.345 µM)
- MIC ([5]; read-out: MIC S. pneumoniae ATCC 700677 MDR, 1% Survanta): 0.5 µg/mL (≈ 0.345 µM)
- MIC ([5]; read-out: MIC S. pneumoniae ATCC 700677 MDR, 5% Survanta): 0.5 µg/mL (≈ 0.345 µM)
- MIC ([5]; read-out: MIC S. pneumoniae ATCC 700677 MDR, no added Survanta): 0.5 µg/mL (≈ 0.345 µM)
- bioavailability ([6]; male, CD1, plasma, subcutaneous, SC 10 mg kg-1 vs IV 2 mg kg-1): 70.5%
- concentration at 5 min ([6]; male, CD1, plasma, 2 mg/kg IV, 5 min, n=3): 5790 ng/mL
- concentration at […] [6, 8]: 3590 ng/mL
- concentration at 0.5 h [6, 8]: 1980 ng/mL
- concentration at 1 h [6, 8]: 762 ng/mL
- concentration at 2 h [6, 8]: 193 ng/mL
- concentration at 4 h [6, 8]: 27.5 ng/mL
- concentration at […] ([6]; male, CD1, plasma, 10 mg/kg SC, n=3, read-out: Plasma concentration, Mean SC): 10700 ng/mL
- concentration at 0.5 h [6, 9]: 9580 ng/mL
- concentration at 1 h [6, 9]: 5200 ng/mL
- concentration at 2 h [6, 9]: 1270 ng/mL
- concentration at 4 h [6, 9]: 137 ng/mL
- concentration at 8 h ([6]; male, CD1, plasma, 10 mg/kg SC, 8.00 h): 6.17 ng/mL
- AUC(0-inf) [6, 10]: 3240 ng·h/mL
- AUC(0-t) [6, 10]: 3210 ng·h/mL
- C0 [6, 10]: 7360 ng/mL
- clearance [6, 10]: 10.4 mL/min/kg
- half-life [6, 10]: 38.4 min
- MRT inf [6, 10]: 37.2 min
- MRT last [6, 10]: 35.4 min
- Vd ([6]; male, CD1, plasma, IV 2 mg kg-1, read-out: Vdss): 0.39 L/kg
- AUC(0-inf) [6, 11]: 11400 ng·h/mL
- AUC(0-t) [6, 11]: 11400 ng·h/mL
- Cmax [6, 11]: 10700 ng/mL
- Tmax [6, 11]: 15 min
- half-life [6, 11]: 48 min
- MRT inf [6, 11]: 59.4 min
- MRT last [6, 11]: 58.8 min
- AUC0-inf/AUC0-last ([6]; IV 2 mg kg-1): 101%
- Tlast ([6]; IV 2 mg kg-1): 4 h
- AUC0-inf/AUC0-last ([6]; SC 10 mg kg-1): 100%
- Tlast ([6]; SC 10 mg kg-1): 8 h
- Dissipation of membrane potential (diSC3(5) fluorescence) (S. aureus ATCC 43300): no effect
- % compound remaining after incubation in 50% human plasma, 0h [7]: 100%

Reference: paper PMC5750218, “Protein-inspired antibiotics active against vancomycin- and daptomycin-resistant bacteria” (Nature Communications, 2018)
